Test results taken from paper PMC5654414, “In vitro and in vivo comparative and competitive activity-based protein profiling of GH29 α-L-fucosidases” (Chemical Science, 2015).

What was measured:
[1] = molecular target: T1, FUCA1 (recombinant human GH29 α-L-fucosidase per table title) (Homo sapiens, UniProt P04066); experiment: In situ inhibition of FUCA1 in living fibroblasts; type: cell-based
T1 construct: endogenous in cells; host or cells: fibroblasts
T1 sequence (P04066 32-466): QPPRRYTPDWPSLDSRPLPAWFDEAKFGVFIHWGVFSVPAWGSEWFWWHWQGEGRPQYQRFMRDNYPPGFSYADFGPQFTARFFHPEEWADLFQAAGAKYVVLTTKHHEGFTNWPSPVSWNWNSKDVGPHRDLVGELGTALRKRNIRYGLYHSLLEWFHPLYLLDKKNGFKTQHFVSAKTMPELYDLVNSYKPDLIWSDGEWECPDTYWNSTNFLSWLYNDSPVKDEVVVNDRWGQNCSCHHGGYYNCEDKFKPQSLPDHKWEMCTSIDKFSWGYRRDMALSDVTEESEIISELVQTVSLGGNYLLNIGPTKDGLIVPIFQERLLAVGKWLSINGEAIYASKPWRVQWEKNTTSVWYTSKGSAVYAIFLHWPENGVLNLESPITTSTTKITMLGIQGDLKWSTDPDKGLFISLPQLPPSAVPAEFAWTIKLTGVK

FUCA1 = molecular target: T2, FUCA1 (Homo sapiens, UniProt P04066); experiment: Fluorescent labeling kinetics, time course on SDS-PAGE; type: binding; design: expressed in transfected cells; host or cells: COS-7; details: 10 nM probe, stoichiometric rhFUCA1, 4 °C
T2 sequence (P04066 32-466): T1 sequence (P04066 32-466)
From the text: This rapid reaction with both 1 and 2 also precluded a classic determination of kinetic constants following a time-dependent decrease in detectable 4-methylumbelliferone (ESI Fig. S5b ^†).
Fig. S4. In vitro pH profile of recombinant FUCA1. A) In vitro labeling of COS-7 cell lysate containing over-expressed human FUCA1 at various pH with ABP 1. B) Relative in vitro labeling of FUCA1 with ABP 1 (closed squares) compared to relative enzymatic activity towards artificial 4-methylumbelliferyl-α-L-fucopyranoside substrate (open circles) at various pH. Data average of n = 3 experiments, ± standard deviation.
Fig. S5. In vitro inhibition kinetics of ABPs 1 and 2 towards recombinant human FUCA1. A) Stoichiometric in situ labeling of COS-7 lysate containing over-expressed human FUCA1 with 10 nM ABP 1 at 4°C and 37°C. B) Plots of Kobserved against the concentration of ABP 1 and 2. Rates determined through direct kinetic measurements of liberated 4-methylumbelliferone from 4-methylumbelliferyl-α-L-fucopyranoside substrate whilst in the presence of varying concentrations of ABP 1 and 2. […]

[2] = molecular target: T3, retaining α-L-fucosidases (Mus musculus, UniProt Q99LJ1); experiment: In vivo labeling of α-L-fucosidases in mice; design: species or system C57Bl/6J mice; details: any of the administered doses (10, 100, 1000 pmol), 2 h
T3 construct: from tissue; host or cells: C57Bl/6J mouse spleen, liver, kidney, brain (in vivo)
T3 sequence (Q99LJ1 18-452): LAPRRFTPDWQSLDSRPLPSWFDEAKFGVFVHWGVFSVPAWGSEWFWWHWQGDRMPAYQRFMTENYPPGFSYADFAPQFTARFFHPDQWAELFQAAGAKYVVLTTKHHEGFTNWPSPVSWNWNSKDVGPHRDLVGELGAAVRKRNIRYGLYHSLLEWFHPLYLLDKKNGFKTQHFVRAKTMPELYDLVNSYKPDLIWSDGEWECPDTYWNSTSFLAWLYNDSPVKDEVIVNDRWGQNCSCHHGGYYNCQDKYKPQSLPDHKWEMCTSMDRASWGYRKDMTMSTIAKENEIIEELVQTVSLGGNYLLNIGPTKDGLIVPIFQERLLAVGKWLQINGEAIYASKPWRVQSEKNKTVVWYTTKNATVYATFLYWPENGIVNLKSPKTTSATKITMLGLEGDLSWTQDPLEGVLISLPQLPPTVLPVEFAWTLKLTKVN
Description: (§1) The ability of 1 to label α-L-fucosidase in living mice was investigated next. Four wild-type C57Bl/6J male mice were injected with 100 μL vehicle (PBS) or PBS containing 10, 100 or 1000 pmol 1. After two hours, the mice were anesthetized, perfused with PBS and then brain, spleen, liver and kidney tissues were isolated. Tissue homogenates were prepared and each lysate was labeled prior to gel electrophoresis with red-fluorescent cyclophellitol β-aziridine JJB75, which labels β-exoglucosidases as loading control (ESI Fig. S6 ^†). Furthermore, tissue homogenates of vehicle-treated animals were labeled with excess 1 to visualize the maximal α-L-fucosidase labeling achievable in each tissue.
(§2) The appropriate ethics committee for animal experiments approved all experimental procedures. Wild-type C57Bl/6J male mice were obtained from Harlan and fed a commercially available lab diet (RMH-B; Hope Farms). Four C57BL/6J mice were injected intraperitoneally with 100 μL sterile PBS (vehicle) or PBS containing 10, 100, or 1000 pmol of ABP 1 (about 0.2 μg kg^–1, 2 μg kg^–1, and 20 μg kg^–1, respectively). At 2 h post-administration, urine was collected and the mice were anesthetized with FFM mix (25/25/50 fentanylcitrate/midazalam/H2O), blood was collected and perfused with PBS at 3.0 mL min^–1. Then urine and organs were collected and directly frozen in liquid nitrogen. Homogenates were made in 25 mM potassium phosphate buffer, pH 6.5, supplemented with 0.1% (v/v) Triton X-100 and protease inhibitor cocktail (Roche). After determination of protein concentration (BCA kit, Pierce), 50 μg total protein was incubated with 100 nM red fluorescent JJB75 and analyzed by SDS-PAGE. As controls, matching tissue homogenates of vehicle-treated animals were concomitantly labeled with 1 μM ABP 1 and 100 nM JJB75 prior to SDS-PAGE.

[3] = test system: retaining α-L-fucosidases; experiment: In vivo labeling of α-L-fucosidases in mice; design: species or system C57Bl/6J mice
Description: as §1, §2

CC1=CC(C)=[N+]2C1=C(CCCCc1cn(CCCCCCCC(=O)N3[C@@H]4[C@@H](C)[C@@H](O)[C@@H](O)[C@H](O)[C@@H]43)nn1)c1c(C)cc(C)n1[B-]2(F)F [compound 1]
IC50 [1]: 28.9 ± 4.4 nM | completeness of labeling over time (FUCA1): near complete within the first minute | in vivo brain FUCA1 labeling [2]: no in vivo brain FUCA1 labeling was observed | brain penetration ([3]; concluded from absent brain labeling): does not penetrate the brain | in vivo labeling of α-fucosidase in spleen, liver and kidney ([3]; injection of 1000 pmol, 2 h): substantial labeling | in vivo labeling of retaining α-L-fucosidases in spleen, liver and kidney ([3]; intraperitoneal, 10, 100 or 1000 pmol, 2 h): dose-dependent labeling
